Measurements published in patent publication US20100028366A1, “SYNERGISTIC EFFECT BETWEEN A […] AND ANOTHER OXIDATIVE INDUCING SYSTEM FOR TREATING TUMORS” (priority 2005, published 2010).
Peptide text beside a SMILES is read from it. * marks the point of attachment. Cbz = O=C(OCc1ccccc1)*; CH2F = FC*

Legend:
Type in all cases: cell-based, canine
W&Wlis cells [1] = assay: DNA content analysis by flow cytometry, labeling with propidium iodide; parameters: unit not given here; settings: UV (24 hours), 12.5 J/m^2; Z-VAD-fmk 100 μM; UV Control = 66.14
W&Wlis cells [2] = assay: Analysis of the type of death by flow cytometry (annexin V-FITC/propidium iodide); parameters: Necrosis / Apoptosis: unit not given here
Description: The annexin V-FITC and propidium iodide assay was performed in parallel by flow cytometry. The pattern of death of the system was analyzed when adding 5 mEU/ml of glucose oxidase and the combined therapy (5 mEU/ml of GO and 500 μg/ml of linamarin) at 48 hours, followed by the control of untreated cells and of the cells incubated with 500 μg/ml of linamarin at 96 hours. Furthermore, another group of cells was subjected to the same conditions except 10 mM of N-acetyl cysteine (NAC) were added. The cells treated with the combined therapy were subsequently studied at 48 hours in the absence and presence of 100 μM of Z-VAD-fmk, followed by the control of treatment of the cells with UV in the same conditions. Finally, the cells treated with the combined therapy were shown at 48 hours in the absence and presence of 300 μM of 1,5-isoquinolinediol (DIQ), observing that the pattern of death is not modified when PARP-1 is inhibited (FIG. 4).
10^5 W&Wlis cells were seeded in test tubes with a screw-on cap and flat side (Nunc). After 24 hours, different amounts of linamarin (50, 200 or 500 μg/ml) and glucose oxidase (5 mEU/ml) were added in the specified cases. In the appropriate assays, the medium was supplemented with N-acetyl cysteine (10 mM), 1,5-isoquinolinediol (300 μM) or Z-VAD-fmk (100 μM). […] They were centrifuged for 5 minutes at 1200 rpm and the cell precipitate was washed first with PBS and then with binding buffer (0.1 M Hepes/NaOH pH 7.4, 1.4 M NaCl and 25 mM CaCl2). The cells were again precipitated and resuspended in 100 μl of binding buffer supplemented with 5 μl of annexin V-FITC and 2.5 μg/ml of propidium iodide. The samples were incubated for 15 minutes in the dark. Data acquisition and analysis was carried out by means of a FACSCalibur flow cytometer (DB Biosciences) with the Cell Quest program.

W&Wlis cells [3] = assay: as above; parameters: unit not given here; settings: Table 5; Control cells; DIQ (300 μM); 32 hours
[4] = Table 4, 0 μg lin, Without GO, 72 hours, Z-VAD-fmk (100 μM)
[5] = 0 μg lin, Without GO, 96 hours, NAC (10 mM)
[6] = Table 5, Control cells, DIQ (300 μM), 48 hours

Q: How did the “DNA content by flow cytometry, labeling with propidium iodide” value (W&Wlis cells [1]) turn out when COC(=O)C[C@H](NC(=O)[C@H](C)NC(=O)[C@@H](NC(=O)OCc1ccccc1)C(C)C)C(=O)CF [Z-VAD-fmk, reference compound] (Cbz-Val-Ala-Asp(OMe)-CH2F) was run?
A: Z-VAD-fmk = 2.71

Q: And the Apoptosis (W&Wlis cells [2]; [4])?
A: 2.66

Q: And the Necrosis (W&Wlis cells [2]; [4])?
A: 37.25

Q: And the “inhibition of UV radiation-induced apoptosis” value (W&Wlis cells [2]; Z-VAD-fmk (100 μM), UV 12.5 J/m^2, DNA content and annexin V-FITC/propidium iodide)?
A: complete inhibition

Q: What does the source list for CC(=O)N[C@@H](CS)C(=O)O [NAC, N-acetyl cysteine, reference compound]?
A: Apoptosis (W&Wlis cells [2]; [5]): 16.17; Necrosis (W&Wlis cells [2]; [5]): 13.46

Q: What does the source list for Oc1cccc2c(O)nccc12 [DIQ, 1,5-isoquinolinediol, reference compound]?
A: Necrosis (W&Wlis cells [3]): 17.62; Apoptosis (W&Wlis cells [2]; Table 5, Control cells, DIQ (300 μM), 32 hours): 8.15; Apoptosis (W&Wlis cells [2]; [6]): 20.16; Necrosis (W&Wlis cells [2]; [6]): 29.59
